From patent US8962690B2, “Compositions of dibromomalonamide and their use as biocides” (priority 2009, dated 2015) come the findings set out here.

Counter-ions that a name gives are not always drawn. Like-named read-outs stand apart in the source and are kept apart here.

For experiment [1], the system named is mixture of Pseudomonas aeruginosa ATCC 10145 and Staphylococcus aureus ATCC 6538. Description: Kill Assay (minimum biocide concentration, MBC). Type of experiment: cell-based. The following applies: 2 h. On the procedure: Kill Assay. This assay is used as a preliminary evaluation of synergy between the actives. The procedure is as follows. A mineral salts solution (0.2203 g of CaCl2, 0.1847 g of MgSO4, and 0.2033 g of NaHCO3 in 1 L water, approximately pH 8) is inoculated with equal amounts (about 10^7CFU/ml) of a mixture of Pseudomonas aeruginosa ATCC 10145 and Staphylococcus aureus ATCC 6538. Aliquots of the cell suspension are then treated with 2,2-dibromomalonamide (“DBMAL”), a surface active biocide, and their combinations at various concentration levels. […] The MBC values are then used to calculate a synergy index (SI) values. Summaries of the kill assay results are presented in the individual Examples. In each table, MBC values for each biocide and the blends tested are presented. Likewise, the Synergy Index (“SI”) values for the combinations are listed. SI is calculated with the following equation: Synergy Index=Ca/CA+Mb/CB where • Ca: Concentration of biocide A required for complete bacterial kill when used in combination with biocide B • CA: Concentration of biocide A required for complete bacterial kill when used alone • Cb: Concentration of biocide B required for complete bacterial kill when used in combination with biocide A • CB: […] Antagonistic

Experiment [2] concerns mixture of Pseudomonas aeruginosa, Klebsiella pneumoniae, Staphylococcus aureus, and Bacillus subtilis. Description: Growth Inhibition Assay (microtiter plate, OD580). Type of experiment: cell-based. Particulars: for inhibition at 0.39 µg/mL / inhibition at 0.78 µg/mL / inhibition at 1.56 µg/mL / inhibition at 3.13 µg/mL / inhibition at 6.25 µg/mL / inhibition at 12.5 µg/mL / inhibition at 25 µg/mL: 24 h. The source says: Regardless of the mechanism of action, the impact of a biocide (or combination of biocides) can be measured over time on the basis of an increase in the size of the community.
The assay measures the efficacy of one or more biocides at preventing growth of a consortium of bacteria in a dilute mineral salts medium. The medium contains (in mg/l) the following components: FeCl3.6H2O (1); CaCl2.2H2O (10); MgSO4.7H2O (22.5); (NH4)2SO4 (40); KH2PO4 (10); K2HPO4 (25.5); Yeast Extract (10); and glucose (100). After all components are added to deionized water, the pH of the medium is adjusted to 7.5. Following filter sterilization, aliquots are dispensed in 100 ul quantities to sterile microtiter plate wells. Dilutions of DBMAL and/or “Biocide B” are then added to the microtiter plate. After preparing the combinations of actives as illustrated below, each well is inoculated with 100 μl of a cell suspension containing ca. 1×10^6 cells per milliliter of a mixture of Pseudomonas aeruginosa, Klebsiella pneumoniae, Staphylococcus aureus, and Bacillus subtilis. The final total volume of medium in each well is 300 μl. Once prepared as described herein, the concentration of each active ranges from 25 ppm to 0.195 ppm as illustrated in Table 1. The resulting matrix allows testing of eight concentrations of each active and 64 combinations of actives in the ratios (of actives).
Controls (not shown) contain the medium with no biocide added. After preparing the combinations of actives as illustrated above, each well is inoculated with 100 μl of a cell suspension containing ca. 1×10^6 cells per milliliter of a mixture of Pseudomonas aeruginosa, Klebsiella pneumoniae, Staphylococcus aureus, and Bacillus subtilis. The final total volume of medium in each well is 300 μl.
Immediately after the microtiter plates are prepared, the optical density (OD) readings for each well is measured at 580 nm and the plates are then incubated at 37° C. for 24 hr. After the incubation period, the plates are gently agitated before OD580 values are collected. The OD580 values at T0 are subtracted from T24 values to determine the total amount of growth (or lack thereof) that occurs. These values are used to calculate the percent inhibition of growth caused by the presence of each biocide and each of the 64 combinations.
where • CDBMAL: Concentration of DBMAL required to inhibit ˜90% of bacterial growth when used alone • CB: Concentration of biocide (B) required to inhibit ˜90% of bacterial growth when used alone. • MDBMAL: Concentration of DBMAL required to inhibit ˜90% of bacterial growth when used in combination with biocide (B). • MB: Concentration of biocide (B) required to inhibit ˜90% of bacterial growth when used in combination with DBMAL The SI values are interpreted as follows: • SI<1: Synergistic • SI=1: Additive • SI>1: Antagonistic
In the Examples below, the amounts of biocides in the solution are measured in mg per liter of solution (mg/l). Since solution densities are approximately 1.00, the mg/l measurement corresponds to weight ppm. Both units may therefore be used interchangeably in the Examples.

The mark [3] stands for this setting: read-out: % Inhibition of growth by DDMAC.
[4] abbreviates: read-out: % Inhibition of growth by DGH.

In general, MBC refers to the smallest concentration meeting the test's criterion for killing. The term inhibition denotes the percentage by which the read-out fell short of the control.

Turning to `CCCCCCCC[N+](C)(C)CCCCCCCC.[Cl-]` [DDAC, dioctyl dimethyl ammonium chloride], in experiment [1] (read-out: MBC, 2nd biocide DDAC), the minimum bactericidal concentration (MBC) is above 150 µg/mL.

“C12-C16 alkyl dimethyl benzyl ammonium chloride [ADBAC]”: the “% Inhibition of growth by ADBAC” value in experiment [2] (ADBAC alone 0.78 mg/l, 24 hr) was found to be 6%; in experiment [2] (ADBAC alone 1.56 mg/l, 24 hr), 50%. In addition, the “90% inhibition of growth concentration (I90)” value in experiment [2] (single active, 24 hr) stood at 3.13 mg/L.

Turning to `CCCCCCCCCC[N+](C)(C)CCCCCCCCCC` [DDMAC, didecyldimethyl ammonium chloride], in experiment [2] (setting [3]), the inhibition at 0.39 µg/mL was found to be 12%, the inhibition at 0.78 µg/mL is 23%, the inhibition at 1.56 µg/mL came out at 26% and the inhibition at 3.13 µg/mL was found to be 46%. In addition, in experiment [2] (setting [3]), the inhibition at 6.25 µg/mL was found to be 100%, the inhibition at 12.5 µg/mL was determined as 100% and the inhibition at 25 µg/mL turned out to be 100%.

Regarding `NC(=O)C(Br)(Br)C(N)=O` [DBMAL, 2,2-dibromomalonamide], the minimum bactericidal concentration (MBC) in experiment [1] (read-out: MBC, 1st biocide DBMAL) was found to be 66.7 µg/mL. Besides, the inhibition at 0.39 µg/mL stood at 28% in experiment [2] (DBMAL alone 0.39 mg/l, 24 hr (Table 3), read-out: % Inhibition of growth by DBMAL) and 19% in experiment [2] (DBMAL alone 0.39 mg/l, 24 hr (Table 7), read-out: % Inhibition of growth by DBMAL). The inhibition at 0.78 µg/mL in experiment [2] (DBMAL alone 0.78 mg/l, 24 hr (Table 3), read-out: % Inhibition of growth by DBMAL) was found to be 34%; in experiment [2] (DBMAL alone 0.78 mg/l, 24 hr (Table 5), read-out: % Inhibition of growth by DBMAL) it was 3%; in experiment [2] (DBMAL alone 0.78 mg/l, 24 hr (Table 7), read-out: % Inhibition of growth by DBMAL), 14%. Moreover, the inhibition at 1.56 µg/mL in experiment [2] (DBMAL alone 1.56 mg/l, 24 hr (Table 3), read-out: % Inhibition of growth by DBMAL) was determined as 26%; in experiment [2] (DBMAL alone 1.56 mg/l, 24 hr (Table 7), read-out: % Inhibition of growth by DBMAL), 8%. Moreover, the inhibition at 3.13 µg/mL in experiment [2] (DBMAL alone 3.13 mg/l, 24 hr (Table 3), read-out: % Inhibition of growth by DBMAL) was found to be 1%; in experiment [2] (DBMAL alone 3.13 mg/l, 24 hr (Table 5), read-out: % Inhibition of growth by DBMAL), 1%; in experiment [2] (DBMAL alone 3.13 mg/l, 24 hr (Table 7), read-out: % Inhibition of growth by DBMAL) it was 10%. The inhibition at 6.25 µg/mL amounted to 5% in experiment [2] (DBMAL alone 6.25 mg/l, 24 hr (Table 5), read-out: % Inhibition of growth by DBMAL); 16% in experiment [2] (DBMAL alone 6.25 mg/l, 24 hr (Table 7), read-out: % Inhibition of growth by DBMAL); 18% in experiment [2] (DBMAL alone 6.25 mg/l, 24 hr (Table 9), read-out: % Inhibition of growth by DBMAL).

In the case of `CCCCCCCCCCCCNC(=N)N` [DGH, dodecylguanidine hydrochloride], in experiment [2] (setting [4]), the inhibition at 0.39 µg/mL was found to be 3%, the inhibition at 0.78 µg/mL was 0%, the inhibition at 1.56 µg/mL was 0% and the inhibition at 3.13 µg/mL was 3%. Also, in experiment [2] (setting [4]), the inhibition at 6.25 µg/mL came to 52%, the inhibition at 12.5 µg/mL amounted to 100% and the inhibition at 25 µg/mL was found to be 100%.
